From ChEMBL document CHEMBL3045259, “Synthesis, molecular docking studies, and in vitro screening of sulfanilamide-thiourea hybrids as antimicrobial and urease inhibitors” (Med Chem Res, 2013)
Converted amounts (≈) assume the structure as drawn. The source made the active and inactive calls. The calls are words filed in the database; no cut-off is given here.

Key:
[1] = system: Bacillus subtilis; assay: Antibacterial activity against Bacillus subtilis assessed as growth inhibition after 24 hr by NCCLS broth micro-dilution method; assay type: functional
[2] = system: Escherichia coli; assay: Antibacterial activity against Escherichia coli assessed as growth inhibition after 24 hr by NCCLS broth micro-dilution method; assay type: functional
[3] = target: Urease (Canavalia ensiformis, UniProt P07374); assay: (§1) Inhibition of Canavalia ensiformis (jack bean) urease assessed as release of ammonia after 30 min by indophenol method
Urease, sequence (P07374 whole entry): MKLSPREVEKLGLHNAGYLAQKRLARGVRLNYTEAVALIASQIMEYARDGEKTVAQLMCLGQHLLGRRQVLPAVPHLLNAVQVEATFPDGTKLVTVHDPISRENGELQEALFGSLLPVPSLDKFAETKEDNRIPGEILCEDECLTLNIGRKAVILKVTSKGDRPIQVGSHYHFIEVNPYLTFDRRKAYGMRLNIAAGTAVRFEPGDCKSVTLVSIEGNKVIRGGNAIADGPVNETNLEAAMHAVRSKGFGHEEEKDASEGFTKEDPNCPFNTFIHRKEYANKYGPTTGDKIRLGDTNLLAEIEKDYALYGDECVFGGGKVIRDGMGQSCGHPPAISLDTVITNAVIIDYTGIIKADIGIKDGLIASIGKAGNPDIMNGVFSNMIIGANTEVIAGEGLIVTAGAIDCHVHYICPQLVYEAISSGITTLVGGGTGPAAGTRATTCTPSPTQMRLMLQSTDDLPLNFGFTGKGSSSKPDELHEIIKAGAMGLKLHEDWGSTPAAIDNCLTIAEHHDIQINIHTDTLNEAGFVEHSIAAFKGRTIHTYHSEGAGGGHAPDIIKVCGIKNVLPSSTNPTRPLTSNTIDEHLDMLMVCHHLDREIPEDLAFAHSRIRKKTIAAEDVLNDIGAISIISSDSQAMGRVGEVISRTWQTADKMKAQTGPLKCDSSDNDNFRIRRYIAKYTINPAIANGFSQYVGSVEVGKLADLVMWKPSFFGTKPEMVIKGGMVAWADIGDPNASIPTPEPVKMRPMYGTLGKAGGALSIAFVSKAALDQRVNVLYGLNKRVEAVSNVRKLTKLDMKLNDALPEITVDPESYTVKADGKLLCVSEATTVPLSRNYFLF

[4] = system: Shigella flexneri; assay: Antibacterial activity against Shigella flexneri assessed as growth inhibition after 24 hr by NCCLS broth micro-dilution method; assay type: functional
[5] = system: Staphylococcus aureus; assay: Antibacterial activity against Staphylococcus aureus assessed as growth inhibition after 24 hr by NCCLS broth micro-dilution method; assay type: functional
[6] = system: Aspergillus; assay: Antifungal activity against Aspergillus […] assessed as inhibition of fungal hyphae extension after 24 to 48 hr by agar well diffusion method; assay type: functional
[7] = system: Aspergillus flavus; assay: Antifungal activity against Aspergillus flavus assessed as inhibition of fungal hyphae extension after 24 to 48 hr by agar well diffusion method; assay type: functional
[8] = system: Aspergillus niger; assay: Antifungal activity against Aspergillus niger assessed as inhibition of fungal hyphae extension after 24 to 48 hr by agar well diffusion method; assay type: functional
[9] = target: Urease (Canavalia ensiformis) (UniProt P07374); assay: as §1
Urease (Canavalia ensiformis), sequence (P07374 whole entry, looked up): as the sequence (P07374 whole entry) above

[10] = target: Urease (Canavalia ensiformis) (UniProt P07374); assay: Ratio of thiourea Ki to compound Ki for Canavalia ensiformis (jack bean) urease

NS(=O)(=O)c1ccc(NC(=S)NC(=O)Cc2ccccc2)cc1
MIC [1]: 0.313 µg/mL (≈ 0.896 µM) | MIC [2]: 0.313 µg/mL (≈ 0.896 µM) | Ki [3]: 1600 nM | MIC [4]: 0.313 µg/mL (≈ 0.896 µM) | MIC [5]: 0.313 µg/mL (≈ 0.896 µM)

NS(=O)(=O)c1ccc(NC(=S)NC(=O)c2cccc(F)c2)cc1
MIC [1]: 0.313 µg/mL (≈ 0.886 µM) | MIC [2]: 0.313 µg/mL (≈ 0.886 µM) | Ki [3]: 1490 nM | inhibition [6]: inactive | inhibition zone (IZ) [7]: 2.8 mm | inhibition zone (IZ) [8]: 2.4 mm | MIC [4]: 0.156 µg/mL (≈ 0.441 µM) | MIC [5]: 0.313 µg/mL (≈ 0.886 µM)

NS(=O)(=O)c1ccc(NC(=S)NC(=O)c2ccc(Cl)cc2[N+](=O)[O-])cc1
MIC [1]: 0.156 µg/mL (≈ 0.376 µM) | MIC [2]: 0.156 µg/mL (≈ 0.376 µM) | Ki [3]: 5590 nM | MIC [4]: 0.156 µg/mL (≈ 0.376 µM) | MIC [5]: 0.156 µg/mL (≈ 0.376 µM)

COc1ccc(C(=O)NC(=S)Nc2ccc(S(N)(=O)=O)cc2)c(OC)c1OC
MIC [1]: 0.156 µg/mL (≈ 0.367 µM) | MIC [2]: 0.313 µg/mL (≈ 0.736 µM) | Ki [3]: 1340 nM | MIC [4]: 0.313 µg/mL (≈ 0.736 µM) | MIC [5]: 0.156 µg/mL (≈ 0.367 µM)

COc1cccc(C(=O)NC(=S)Nc2ccc(S(N)(=O)=O)cc2)c1
MIC [1]: 0.313 µg/mL (≈ 0.857 µM) | MIC [2]: 0.313 µg/mL (≈ 0.857 µM) | Ki [3]: 650 nM | MIC [4]: 0.313 µg/mL (≈ 0.857 µM) | MIC [5]: 0.313 µg/mL (≈ 0.857 µM)

COc1cccc(C(=O)NC(=S)Nc2ccc(S(N)(=O)=O)cc2)c1OC
MIC [1]: 0.313 µg/mL (≈ 0.791 µM) | MIC [2]: 0.313 µg/mL (≈ 0.791 µM) | Ki [3]: 820 nM | inhibition zone (IZ) [6]: 0.9 mm | inhibition [7]: inactive | inhibition [8]: inactive | MIC [4]: 0.156 µg/mL (≈ 0.394 µM) | MIC [5]: 0.313 µg/mL (≈ 0.791 µM)

Cc1ccccc1C(=O)NC(=S)Nc1ccc(S(N)(=O)=O)cc1
MIC [1]: 0.625 µg/mL (≈ 1.79 µM) | MIC [2]: 0.313 µg/mL (≈ 0.896 µM) | inhibition [9]: 53% | MIC [4]: 0.313 µg/mL (≈ 0.896 µM) | MIC [5]: 0.625 µg/mL (≈ 1.79 µM)

NS(=O)(=O)c1ccc(NC(=S)NC(=O)c2ccc([N+](=O)[O-])cc2)cc1
MIC [1]: 0.156 µg/mL (≈ 0.41 µM) | MIC [2]: 0.313 µg/mL (≈ 0.823 µM) | Ki [3]: 7500 nM | MIC [4]: 0.313 µg/mL (≈ 0.823 µM) | MIC [5]: 0.156 µg/mL (≈ 0.41 µM)

O=C(O)c1cn(C2CC2)c2cc(N3CCNCC3)c(F)cc2c1=O [CIPROFLOXACIN]
MIC [1]: 0.625 µg/mL (≈ 1.89 µM) | MIC [2]: 0.156 µg/mL (≈ 0.471 µM) | MIC [4]: 0.313 µg/mL (≈ 0.945 µM) | MIC [5]: 0.156 µg/mL (≈ 0.471 µM)

CCCCCCCCCCCC(=O)NC(=S)Nc1ccc(S(N)(=O)=O)cc1
MIC [1]: 0.313 µg/mL (≈ 0.757 µM) | MIC [2]: 0.313 µg/mL (≈ 0.757 µM) | Ki [3]: 1300 nM | inhibition zone (IZ) [6]: 4.9 mm | inhibition zone (IZ) [7]: 5.1 mm | inhibition zone (IZ) [8]: 4.6 mm | MIC [4]: 0.313 µg/mL (≈ 0.757 µM) | MIC [5]: 0.313 µg/mL (≈ 0.757 µM)

NC(N)=S [THIOUREA]
Ki [3]: 23000 nM

NS(=O)(=O)c1ccc(NC(=S)NC(=O)c2ccco2)cc1
MIC [1]: 0.625 µg/mL (≈ 1.92 µM) | MIC [2]: 0.313 µg/mL (≈ 0.962 µM) | Ki [3]: 1140 nM | MIC [4]: 0.313 µg/mL (≈ 0.962 µM) | MIC [5]: 0.625 µg/mL (≈ 1.92 µM)

COc1cc(OC)cc(C(=O)NC(=S)Nc2ccc(S(N)(=O)=O)cc2)c1
MIC [1]: 0.313 µg/mL (≈ 0.791 µM) | MIC [2]: 0.313 µg/mL (≈ 0.791 µM) | Ki [3]: 1210 nM | inhibition zone (IZ) [6]: 2.7 mm | inhibition zone (IZ) [7]: 1.9 mm | inhibition zone (IZ) [8]: 1.5 mm | MIC [4]: 0.313 µg/mL (≈ 0.791 µM) | MIC [5]: 0.313 µg/mL (≈ 0.791 µM)

NS(=O)(=O)c1ccc(NC(=S)NC(=O)c2cccc([N+](=O)[O-])c2)cc1
MIC [1]: 0.313 µg/mL (≈ 0.823 µM) | MIC [2]: 0.313 µg/mL (≈ 0.823 µM) | Ki [3]: 450 nM | MIC [4]: 0.313 µg/mL (≈ 0.823 µM) | MIC [5]: 0.313 µg/mL (≈ 0.823 µM)

NS(=O)(=O)c1ccc(NC(=S)NC(=O)c2cc([N+](=O)[O-])ccc2Cl)cc1
MIC [1]: 0.156 µg/mL (≈ 0.376 µM) | MIC [2]: 0.313 µg/mL (≈ 0.754 µM) | Ratio Ki [10]: 50 | Ki [3]: 440 nM | inhibition [6]: inactive | inhibition zone (IZ) [7]: 2.1 mm | inhibition zone (IZ) [8]: 1.6 mm | MIC [4]: 0.313 µg/mL (≈ 0.754 µM) | MIC [5]: 0.156 µg/mL (≈ 0.376 µM)

CCC(CC(=O)NC(=S)Nc1ccc(S(N)(=O)=O)cc1)c1ccccc1 (stereo not drawn)
MIC [1]: 0.313 µg/mL (≈ 0.799 µM) | MIC [2]: 1.25 µg/mL (≈ 3.19 µM) | Ki [3]: 1230 nM | MIC [4]: 0.313 µg/mL (≈ 0.799 µM) | MIC [5]: 0.625 µg/mL (≈ 1.6 µM)

Cc1ccc(C(=O)NC(=S)Nc2ccc(S(N)(=O)=O)cc2)cc1
MIC [1]: 0.313 µg/mL (≈ 0.896 µM) | MIC [2]: 0.313 µg/mL (≈ 0.896 µM) | Ki [3]: 4320 nM | MIC [4]: 0.156 µg/mL (≈ 0.446 µM) | MIC [5]: 0.313 µg/mL (≈ 0.896 µM)

NS(=O)(=O)c1ccc(NC(=S)NC(=O)c2ccc(Cl)cc2Cl)cc1
MIC [1]: 0.313 µg/mL (≈ 0.774 µM) | MIC [2]: 0.313 µg/mL (≈ 0.774 µM) | Ki [3]: 1910 nM | inhibition [6]: inactive | inhibition [7]: inactive | inhibition zone (IZ) [8]: 0.8 mm | MIC [4]: 0.313 µg/mL (≈ 0.774 µM) | MIC [5]: 0.313 µg/mL (≈ 0.774 µM)

NS(=O)(=O)c1ccc(NC(=S)NC(=O)c2ccc(Cl)cc2)cc1
MIC [1]: 0.156 µg/mL (≈ 0.422 µM) | MIC [2]: 0.313 µg/mL (≈ 0.846 µM) | Ratio Ki [10]: 100 | Ki [3]: 200 nM | MIC [4]: 0.313 µg/mL (≈ 0.846 µM) | MIC [5]: 0.156 µg/mL (≈ 0.422 µM)

NS(=O)(=O)c1ccc(NC(=S)NC(=O)c2cccc(Cl)c2)cc1
MIC [1]: 0.156 µg/mL (≈ 0.422 µM) | MIC [2]: 0.156 µg/mL (≈ 0.422 µM) | Ki [3]: 1500 nM | MIC [4]: 0.156 µg/mL (≈ 0.422 µM) | MIC [5]: 0.156 µg/mL (≈ 0.422 µM)

CN(C/C=C/C#CC(C)(C)C)Cc1cccc2ccccc12 [TERBINAFINE]
inhibition zone (IZ) [6]: 5.2 mm | inhibition zone (IZ) [7]: 5.7 mm | inhibition zone (IZ) [8]: 5.3 mm

Cc1cccc(C(=O)NC(=S)Nc2ccc(S(N)(=O)=O)cc2)c1
MIC [1]: 0.313 µg/mL (≈ 0.896 µM) | MIC [2]: 1.25 µg/mL (≈ 3.58 µM) | Ki [3]: 890 nM | MIC [4]: 0.313 µg/mL (≈ 0.896 µM) | MIC [5]: 0.625 µg/mL (≈ 1.79 µM)
